# Measurements: patent US20100285959A1, “HERBICIDAL MIXTURES” (priority 2006, published 2010)
# Experiments:
# common chickweed (STEME) = assay: Test 23 growth chamber, postemergence; format: in vivo, Stellaria media; conditions: 21 DAA
# Description: (§1) A test was conducted to evaluate the effects on winter barley (HORVW, Hordeum vulgare L.), winter wheat (TRZAW, Triticum aestivum L.), and several weed species of mixtures of Compound 2 with the commercial herbicides (2,4-dichlorophenoxy)acetic acid (2,4-D) and (4-chloro-2-methylphenoxy)acetic acid (MCPA), auxin mimics. […] Plants were treated postemergence at the 2-4 leaf growth stage, and each treatment was replicated three times. […] Plants were watered as needed. […] Results are means of the three replicates.
# winter barley (HORVW) = assay: Test 20 growth chamber, postemergence; format: in vivo, Hordeum vulgare; conditions: 25 DAA
# Description: as §1, with “vulgare L.) and” for “vulgare L.),”, “aestivum L.)” for “aestivum L.), and several weed species”, “the 2-leaf” for “the 2-4 leaf”, “replicated a total of four times (three times in the loam/sand blend and one time in RediEarth).” for “replicated three times.”, “are the” for “are”, “the four” for “the three”
# field poppy (PAPRH) = assay: Test 23 growth chamber, postemergence; format: in vivo, Papaver rhoeas; conditions: 21 DAA
# Description: as §1
# [1] = system: common lambsquarters (CHEAL); assay: Test 2 field trial, preemergence; format: in vivo, Chenopodium album; set-up: scale not given here; conditions: 28 DAA
# Source text: (§2) Corn seeds (hybrid ‘Pioneer 31G96’) were planted in mid spring season, 3.8 cm deep in a clay loam soil having 2% organic matter and a pH of 6.6. Plots were 6.1 m long by 3.0 m wide with rows spaced 76 cm apart. Seeds were spaced 15 cm apart within the rows. The field was managed using conventional tillage practices. […] A few of the weed species could not be evaluated at every timing. […] Results are the means of the three replicates.
# giant ragweed (AMBTR) = assay: Test 2 field trial, preemergence; format: in vivo, Ambrosia trifida; set-up: scale not given here
# Source text: as §2
# common dandelion (TAROF) = assay: Test 9 field trial, emerged weeds before corn planting; format: in vivo, Taraxacum officinale; conditions: g a.i./ha: Cpd 2 100, Glyphosate 1540, Paraquat 1150
# Description: Corn seeds (hybrid ‘Pioneer 34M91 RR’) were planted in mid spring season, about 3.8 cm deep in a silty clay loam soil having a pH of 6.7. Plots were 9.1 m long by 3.0 m. The field was managed using no-till practices. […] Compound 2 and paraquat treatments, alone and in combination, also included a surfactant. Glyphosate, alone and with Compound 2, included ammonium sulfate in the treatment mixture. […] The effects on the weeds in the treated plots and untreated control plots were recorded 7, 14, 23, 30 and 57 days after application. Most of the weed species could not be evaluated at every timing. Corn response was only evaluated 57 days after application. […] Results are the means of the three replicates.
# [2] = system: ladysthumb smartweed (POLPE); assay: Test 14 field trial, preemergence, growth as percent of control; format: in vivo, Polygonum persicaria
# Source text: Corn seeds (hybrid ‘Pioneer 31G96 RR’) were planted in mid spring season, 3.8 cm deep in a clay loam soil having 2% organic matter and a pH of 6.6. Plots were 6.1 m long by 3.0 m wide with rows spaced 76 cm apart. Seeds were spaced 15 cm apart within the rows. The field was managed using conventional tillage practices. […] Yellow nutsedge was only evaluated 19 and 28 days after application, and ivyleaf morningglory could only be evaluated 28 days after application. […] Results are the means of the three replicates. This growth inhibition data was converted to results in the form of “plant growth as a percent of control plant growth” using the calculation “100 minus growth inhibition”. […] For “growth as a percent of control” data, Colby's Equation calculates the expected additive effect of herbicidal mixtures having two active ingredients as follows:
# Ga+b=GaGb/100 • wherein Ga+b is the growth as a percent of control of plants treated with the mixture expected from additive contribution of the individual components, • Ga is the observed growth as a percent of control of plants treated with the first active ingredient at the same use rate as in the mixture, and • Gb is the observed growth as a percent of control of plants treated with the second active ingredient at the same use rate as in the mixture. For mixtures having three active ingredients, Colby's Equation to calculate the expected additive effect of herbicidal mixtures is as follows:
# Ga+b+c=GaGbGc/10,000 • wherein Ga and Gb are as defined above and • Ga+b+c is the growth as a percent of control of plants treated with the mixture expected from additive contribution of the individual components, and • Gc is the observed growth as a percent of control of plants treated with the third active ingredient at the same use rate as in the mixture. When these two forms of Colby's Equation are used, if the observed effects on weeds are less than the expected values, the mixture is synergistic.
# annual grasses (GGGAN) = assay: Test 7 field trial, preemergence; format: in vivo, Gramineae
# Description: (§3) Plots were 7.6 m long by 3.0 m wide with rows spaced 76 cm apart. Seeds were spaced 15 cm apart within the rows. The field was managed using conventional tillage practices. […] Wild radish was evaluated 14 and 28 days after application. […] Results are the means of the three replicates.
# redroot pigweed (AMARE) = assay: Test 7 field trial, preemergence; format: in vivo, Amaranthus retroflexus
# Description: as §3
# [3] = 2,4-D or MCPA alone 250 g a.i./ha
# [4] = g a.i./ha: Cpd 2 25, Atrazine 250
# [5] = g a.i./ha: Cpd 2 50, Atrazine 500
# [6] = g a.i./ha: Cpd 2 75, Atrazine 750
# [7] = g a.i./ha: Cpd 2 100, Atrazine 1000
# [8] = g a.i./ha: Cpd 2 150, Atrazine 1500
# [9] = 18 DAA, g a.i./ha: Cpd 2 25, Atrazine 250
# [10] = 18 DAA, g a.i./ha: Cpd 2 50, Atrazine 500
# [11] = 18 DAA, g a.i./ha: Cpd 2 75, Atrazine 750
# [12] = 18 DAA, g a.i./ha: Cpd 2 100, Atrazine 1000
# [13] = 28 DAA, g a.i./ha: Cpd 2 25, Atrazine 250
# [14] = 28 DAA, g a.i./ha: Cpd 2 50, Atrazine 500
# [15] = 28 DAA, g a.i./ha: Cpd 2 75, Atrazine 750
smiles,measurement,setting,value
"O=C(O)COc1ccc(Cl)cc1Cl [2,4-D, (2,4-dichlorophenoxy)acetic acid]",Postemergence STEME Obs,common chickweed (STEME); [3],65
same,Postemergence HORVW Obs,winter barley (HORVW); [3],26
same,Postemergence PAPRH Obs,field poppy (PAPRH); [3],52
"CCNc1nc(Cl)nc(NC(C)C)n1 [Atrazine, atrazine, reference compound]",CHEAL Obs,[1]; [4],100
same,CHEAL Obs,[1]; [5],100
same,CHEAL Obs,[1]; [6],100
same,CHEAL Obs,[1]; [7],100
same,CHEAL Obs,[1]; [8],100
same,AMBTR Obs,giant ragweed (AMBTR); [9],0
same,AMBTR Obs,giant ragweed (AMBTR); [10],30
same,AMBTR Obs,giant ragweed (AMBTR); [11],75
same,AMBTR Obs,giant ragweed (AMBTR); [12],20
same,AMBTR Obs,giant ragweed (AMBTR); [13],10
same,AMBTR Obs,giant ragweed (AMBTR); [14],5
same,AMBTR Obs,giant ragweed (AMBTR); [15],65
"COC(=O)c1nc(C2CC2)nc(N)c1Cl [Compound 2, methyl 6-amino-5-chloro-2-cyclopropyl-4-pyrimidinecarboxylate]",Postemergence STEME Obs,common chickweed (STEME); Cpd 2 alone 4 g a.i./ha,55
same,Postemergence STEME Obs,common chickweed (STEME); Cpd 2 alone 8 g a.i./ha,58
same,Postemergence STEME Obs,common chickweed (STEME); Cpd 2 alone 16 g a.i./ha,67
same,TAROF Obs,common dandelion (TAROF); 7 DAA,37%
same,TAROF Obs,common dandelion (TAROF); 14 DAA,38%
same,TAROF Obs,common dandelion (TAROF); 23 DAA,60%
same,TAROF Obs,common dandelion (TAROF); 30 DAA,65%
same,TAROF Obs,common dandelion (TAROF); 57 DAA,84%
same,Postemergence HORVW Obs,winter barley (HORVW); Cpd 2 alone 4 g a.i./ha,26
same,Postemergence HORVW Obs,winter barley (HORVW); Cpd 2 alone 8 g a.i./ha,33
same,Postemergence HORVW Obs,winter barley (HORVW); Cpd 2 alone 16 g a.i./ha,44
same,Obs growth % of control,"[2]; 19 DAA, 75 g a.i./ha",88%
same,Obs growth % of control,"[2]; 19 DAA, 100 g a.i./ha",77%
same,Obs growth % of control,"[2]; 28 DAA, 75 g a.i./ha",45%
same,Obs growth % of control,"[2]; 28 DAA, 100 g a.i./ha",58%
same,Obs growth % of control,"[2]; 56 DAA, 75 g a.i./ha",75%
same,Obs growth % of control,"[2]; 56 DAA, 100 g a.i./ha",80%
same,GGGAN Obs,"annual grasses (GGGAN); 14 DAA, 125 g a.i./ha",33%
same,GGGAN Obs,"annual grasses (GGGAN); 14 DAA, 250 g a.i./ha",65%
same,GGGAN Obs,"annual grasses (GGGAN); 14 DAA, 500 g a.i./ha",67%
same,GGGAN Obs,"annual grasses (GGGAN); 28 DAA, 125 g a.i./ha",33%
same,GGGAN Obs,"annual grasses (GGGAN); 28 DAA, 250 g a.i./ha",48%
same,GGGAN Obs,"annual grasses (GGGAN); 28 DAA, 500 g a.i./ha",52%
same,GGGAN Obs,"annual grasses (GGGAN); 62 DAA, 125 g a.i./ha",0%
same,GGGAN Obs,"annual grasses (GGGAN); 62 DAA, 250 g a.i./ha",0%
same,GGGAN Obs,"annual grasses (GGGAN); 62 DAA, 500 g a.i./ha",0%
same,AMARE Obs,"redroot pigweed (AMARE); 14 DAA, 125 g a.i./ha",97%
same,AMARE Obs,"redroot pigweed (AMARE); 14 DAA, 250 g a.i./ha",100%
same,AMARE Obs,"redroot pigweed (AMARE); 14 DAA, 500 g a.i./ha",100%
same,AMARE Obs,"redroot pigweed (AMARE); 28 DAA, 125 g a.i./ha",92%
same,AMARE Obs,"redroot pigweed (AMARE); 28 DAA, 250 g a.i./ha",100%
same,AMARE Obs,"redroot pigweed (AMARE); 28 DAA, 500 g a.i./ha",100%
same,AMARE Obs,"redroot pigweed (AMARE); 62 DAA, 125 g a.i./ha",80%
same,AMARE Obs,"redroot pigweed (AMARE); 62 DAA, 500 g a.i./ha",100%
same,Postemergence PAPRH Obs,field poppy (PAPRH); Cpd 2 alone 4 g a.i./ha,53
same,Postemergence PAPRH Obs,field poppy (PAPRH); Cpd 2 alone 8 g a.i./ha,58
same,Postemergence PAPRH Obs,field poppy (PAPRH); Cpd 2 alone 16 g a.i./ha,72
same,CHEAL Obs,[1]; [4],90
same,CHEAL Obs,[1]; [5],100
same,CHEAL Obs,[1]; [6],100
same,CHEAL Obs,[1]; [7],100
same,CHEAL Obs,[1]; [8],100
same,AMBTR Obs,giant ragweed (AMBTR); [9],10
same,AMBTR Obs,giant ragweed (AMBTR); [10],30
same,AMBTR Obs,giant ragweed (AMBTR); [11],10
same,AMBTR Obs,giant ragweed (AMBTR); [12],45
same,AMBTR Obs,"giant ragweed (AMBTR); 18 DAA, g a.i./ha: Cpd 2 150, Atrazine 1500",65
same,AMBTR Obs,giant ragweed (AMBTR); [13],35
same,AMBTR Obs,giant ragweed (AMBTR); [14],30
same,AMBTR Obs,giant ragweed (AMBTR); [15],75
same,AMBTR Obs,"giant ragweed (AMBTR); 28 DAA, g a.i./ha: Cpd 2 100, Atrazine 1000",70
O=C(O)CNCP(=O)(O)O [Glyphosate],TAROF Obs,common dandelion (TAROF); 7 DAA,37%
same,TAROF Obs,common dandelion (TAROF); 14 DAA,62%
same,TAROF Obs,common dandelion (TAROF); 23 DAA,83%
same,TAROF Obs,common dandelion (TAROF); 30 DAA,90%
same,TAROF Obs,common dandelion (TAROF); 57 DAA,88%
"CCc1cccc(C)c1N(C(=O)CCl)[C@@H](C)COC [S-Metolachlor, S-metolachlor, reference compound]",Obs growth % of control,"[2]; 19 DAA, 1870 g a.i./ha",100%
same,Obs growth % of control,"[2]; 28 DAA, 1870 g a.i./ha",53%
same,GGGAN Obs,"annual grasses (GGGAN); 14 DAA, 1000 g a.i./ha",97%
same,GGGAN Obs,"annual grasses (GGGAN); 28 DAA, 1000 g a.i./ha",93%
same,GGGAN Obs,"annual grasses (GGGAN); 62 DAA, 1000 g a.i./ha",75%
same,AMARE Obs,"redroot pigweed (AMARE); 14 DAA, 1000 g a.i./ha",97%
same,AMARE Obs,"redroot pigweed (AMARE); 28 DAA, 1000 g a.i./ha",78%
same,AMARE Obs,"redroot pigweed (AMARE); 62 DAA, 1000 g a.i./ha",15%
